Test results published in patent US20250127890A1, “COMPOSITIONS AND METHODS FOR TREATING CORONAVIRUS INFECTIOUS DISEASE-19 (COVID-19)” (THE BOARD OF REGENTS OF THE UNIVERSITY OF OKLAHOMA, priority 2021, published 2025).
Read-outs that look alike come from different tables or passages of the source.

What was measured:
[1] = test system: SARS-CoV-2-infected Calu3 cells; type: cell-based; conditions: DCLK1-IN-1 5 μM, tasquinimod 10 μM or both
SARS-CoV-2 [2] = test: Western blot of viral proteins and DCLK1 in SARS-CoV-2-infected Calu3 lung cells; type: cell-based
kinase domain of DCLK1 = molecular target: T1, kinase domain of DCLK1 (Homo sapiens, UniProt O15075); conditions: cited from earlier work
T1 sequence (O15075 390-647 limits assumed): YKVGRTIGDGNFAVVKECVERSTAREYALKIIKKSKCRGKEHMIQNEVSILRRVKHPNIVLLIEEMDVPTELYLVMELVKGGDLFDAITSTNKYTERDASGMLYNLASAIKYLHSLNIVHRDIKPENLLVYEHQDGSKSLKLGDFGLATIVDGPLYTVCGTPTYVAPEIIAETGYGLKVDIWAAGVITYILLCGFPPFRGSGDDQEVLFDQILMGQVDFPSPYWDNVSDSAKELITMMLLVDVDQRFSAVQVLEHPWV

SARS-CoV-2 [3] = type: cell-based
SARS-CoV-2 [4] = test: TCID50 titer of infectious SARS-CoV-2 particles in culture supernatants of infected Calu3 cells; type: cell-based; conditions: treated vs untreated
SARS-CoV-2 [5] = type: cell-based; remark: listed apart in the source
[6] = test system: SARS-CoV-2 infected Calu-3 lung cells; test: Label-free quantitative proteomic analysis of SARS-CoV-2-infected Calu-3 lung cells; type: cell-based
[7] = test system: SARS-CoV-2 nucleocapsid and membrane proteins; test: Phosphoproteomic analysis of viral proteins in infected Calu3 cells; type: cell-based
[8] = mice, cited from earlier work
SARS-CoV-2 [9] = type: in vivo, K18-hACE2 mice; conditions: 10 mg/kg i.p. daily for 4 days
Omicron B.1.1.529 virus = type: cell-based, SARS-CoV-2; conditions: 5 μM and 10 μM, in comparison to vehicle-treated control
[10] = test system: SARS-CoV-2-infected Huh7-RFP-DCLK1 cells with normal human PBMCs; test: Multiplex cytokine assay of spent supernatants from infected Huh7-RFP-DCLK1 / PBMC mixed cocultures; type: cell-based; conditions: 5 μM, 48 h
Experimental: Tissue culture supernatants and sera were analyzed using a custom-made human Magnetic Luminex Assay Kit (LXSAHM-15; R&D Systems) for the following analytes: TNF-α, IFNα, IFNβ, IFNγ, IL-1β, IL-2, IL-4, IL-6, IL-8, IL-10, IL-17, CCL2, M-CSF, GM-CSF, and VEGF-A. Samples were processed in replicates and quantified using the BioPlex 200 System (Bio-Rad). The concentration of each analyte was expressed as pg/mg of total protein. Analyte levels in normal serum or control supernatants were set at 100% when compared to test samples.
To assess the effect of DCLK1 kinase on cytokine production during SARS-CoV-2 infection, we mixed infected Huh7-RFP-DCLK1 cells with normal human PBMCs in the presence of 5 μM DCLK1-IN-1 for 48 h. Spent supernatants were assayed for cytokines/chemokines/growth factors using a multiplex system. As with infected Calu3 cells, DCLK1-IN-1 blocked Spike (FIG. 8A, lane 2, Set 2). […] However, PBMCs were responsive to SARS-CoV-2-infected cells as indicated by increased secretion of TNF-α, IL-1β, IL-6, and IL-10 in spent media compared to uninfected cells (FIG. 8B). DCLK1-IN-1 treatment led to downregulation of cytokines involved in inflammation and viral response (TNF-α, IFNα, IFNγ, and IL-10; FIG. 8C). […] Since CCL2 participates in normal wound healing, an increase in this chemokine may contribute to tissue healing after viral clearance. […]

GM-CSF = molecular target: T2, GM-CSF (Homo sapiens, UniProt P04141); conditions: clinical trial; cited from earlier work
T2 construct: host or cells: COVID-19 patients (endogenous GM-CSF)
T2 sequence (P04141 18-144): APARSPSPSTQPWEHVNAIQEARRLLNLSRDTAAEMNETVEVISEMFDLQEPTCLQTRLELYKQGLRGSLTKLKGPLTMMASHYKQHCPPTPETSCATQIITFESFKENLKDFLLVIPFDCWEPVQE

Question: Which “active forms of caspase 1 and IL-1β” value [1] does the source give for `COc1cccc2c1c(O)c(C(=O)N(C)c1ccc(C(F)(F)F)cc1)c(=O)n2C` [tasquinimod] here?
Answer: The value was “downregulated”.

Question: For `COc1cc(N2CCN(C)CC2)ccc1Nc1ncc2c(n1)N(C)c1ccc(C)cc1C(=O)N2CC(F)(F)F` [DCLK1-NEG], which “effect on Spike” value (SARS-CoV-2 [2]) is on record?
Answer: Its value is “did not reduce Spike”.

Question: What about the binding affinity (kinase domain of DCLK1; structural analog used as negative control) of the same molecule?
Answer: The binding affinity was “low binding affinity”.

Question: With `COc1cc(N2CCN(C)CC2)ccc1Nc1ncc2c(n1)N(C)c1ccccc1C(=O)N2CC(F)(F)F` [DCLK1-IN-1] as the molecule, how does the Spike by immunofluorescence (SARS-CoV-2 [3]) read?
Answer: Its Spike by immunofluorescence is “downregulation of Spike”.

Question: What about the “decrease in infectivity (TCID50)” value (SARS-CoV-2 [4]; 5 μM) of the same molecule?
Answer: The value was 4 fold.

Question: And the “decrease in infectivity (TCID50)” value (SARS-CoV-2 [4]; 10 μM)?
Answer: The value was 10 fold.

Question: And the “effect on Spike” value (SARS-CoV-2 [5])?
Answer: Its value is “blocked Spike”.

Question: What about the nucleocapsid protein abundance ([6]; infected Calu3, proteomics) of the same molecule?
Answer: Its nucleocapsid protein abundance is “not decreased”.

Question: What about the “viral structural proteins (membrane and Spike) and accessory proteins (ORF7a, ORF8, and ORF9b)” value ([6]; infected Calu3, proteomics) of the same molecule?
Answer: Its value is “significantly downregulated”.

Question: What about the “8 host proteins upregulated by SARS-CoV-2 (GSPT2, LGALS1, ENO2, H3C15, LXN, SAMD4B, SPTA1 and WDR75)” value ([6]; infected Calu3, proteomics, GSPT2, SAMD4B, WDR75 validated by Western blot) of the same molecule?
Answer: Its value is “normalized”.

Question: What about the “21 cellular proteins downregulated by SARS-CoV-2 infection” value ([6]; several of these proteins, data not shown) of the same molecule?
Answer: Its value is “restored to normal”.

Question: And the “active forms of caspase 1 and IL-1β” value [1]?
Answer: Its value is “downregulated”.

Question: And the “phosphorylation of five serine residues (S2, S176, S180, S201, and S202) of nucleocapsid protein” value ([7]; compared with untreated and vehicle-treated infected cells)?
Answer: Its value is “significant decrease”.

Question: What about the “phosphorylation of viral membrane protein (M) at S212, S213 and S214” value ([7]; infected cells, phosphoproteomics) of the same molecule?
Answer: Its value is “significantly reduced”.

Question: And the “adverse effects / body weight at MTD” value ([8]; 100 mg/kg)?
Answer: Its value is “no adverse effects or loss of body weight”.

Question: And the half-life [8]?
Answer: Its half-life is 2.09 h.

Question: What about the “maximum tolerated dose (MTD)” value [8] of the same molecule?
Answer: Its value is 100 mg/kg.

Question: And the “Dclk1 and S100A9 in lung (confocal microscopy)” value (SARS-CoV-2 [9])?
Answer: Its value is “low expression”.

Question: And the “expression of Spike and nucleocapsid proteins in lung (Western blot)” value (SARS-CoV-2 [9])?
Answer: The value was “reduced or absent”.

Question: What about the “staining for Spike in lung (confocal microscopy)” value (SARS-CoV-2 [9]) of the same molecule?
Answer: Its value is “rare or weak”.

Question: And the “lung histopathological features (H&E)” value (SARS-CoV-2 [9]; lungs collected on day 5)?
Answer: The value was “significantly improved”.

Question: And the “loss of intracellular viral proteins (nucleocapsid and Spike)” value (SARS-CoV-2 [2]; 5 μM, infected Calu3, Western blot)?
Answer: The value was ~65%.

Question: What about the “loss of intracellular viral proteins (nucleocapsid and Spike)” value (SARS-CoV-2 [2]; 10 μM, infected Calu3, Western blot) of the same molecule?
Answer: Its value is ~95%.

Question: And the DCLK1 protein levels (SARS-CoV-2 [2]; infected Calu3, Western blot)?
Answer: Its DCLK1 protein levels is “not significantly affected”.

Question: And the “reduction in intracellular viral proteins (nucleocapsid and Spike)” value (SARS-CoV-2 [2]; infected Calu3, Western blot, compared to untreated control)?
Answer: The value was “strong dose-response reduction”.

Question: And the “inhibition of Omicron virus production” value (Omicron B.1.1.529 virus)?
Answer: The value was 80%-90%.

Question: What about the “CCL2 (MCP-1)” value [10] of the same molecule?
Answer: The value was “increased expression”.

Question: And the “cytokines involved in inflammation and viral response (TNF-α, IFNα, IFNγ, and IL-10)” value [10]?
Answer: Its value is “downregulation”.

Question: And the Kd (kinase domain of DCLK1; binds the kinase domain of DCLK1)?
Answer: Its Kd is 109 nM.

B1: lenzilumab: a GM-CSF inhibitor (antibody, chains of the INN, looked up, V domains shown)
VH: QVQLVQSGAEVKKPGASVKVSCKASGYSFTNYYIHWVRQAPGQRLEWMGWINAGNGNTKYSQKFQGRVTITRDTSASTAYMELSSLRSEDTAVYYCVRRQRFPYYFDYWGQGTLVTVSS
VL: EIVLTQSPATLSVSPGERATLSCRASQSVGTNVAWYQQKPGQAPRVLIYSTSSRATGITDRFSGSGSGTDFTLTISRLEPEDFAVYYCQQFNKSPLTFGGGTKVEIK
Question: For B1, which “survival of COVID-19 patients” value (GM-CSF) is on record?
Answer: Its value is “significantly improved”.
